Measurements: patent US9707155B2, “Delamination resistant pharmaceutical glass containers containing active pharmaceutical ingredients” (Corning Incorporated, priority 2013, dated 2017)

Columns and labels:
tumor cell lines = conditions: cited from earlier work
[1] = cited from earlier work
blood glucose = assay: Action profile in dogs (blood glucose as percentage of initial level); type: in vivo; conditions: blood glucose at 1 h, 2 h, 3 h, 5 h, 7h
Procedure: An action profile of Lyxumia and/or Lyxumia and Lantus (in combination) after subjection to the storage conditions described in Example 6 is carried out by comparing insulin glargine in dogs with human insulin-Arg^B31-Arg^B32-OH and basal H insulin as an NPH (neutral protamine Hagedorn) composition containing about 10 μg of Zn^2+.
Blood glucose is measured as a percentage of the initial level at the following time points: 1 h, 2 h, 3 h, 5 h, 7h.

[2] = Stability after storage conditions; type: physicochemical; conditions: under the chosen conditions
tumor xenografts (WM9) = assay: Melanoma xenografts (WM9) in nude mice; type: in vivo; conditions: 5 days treatment, versus untreated mice
Procedure: Tumor cells (5×10^6) are injected into the bilateral flanks of female […] nude mice (6-8 weeks of age). The tumors are measured with calipers using the formula: V=[…], where V is the volume, L is the largest diameter, and I is the perpendicular diameter of the tumor. When the volume of the tumor nodules reaches 100-150 mm^3, mice are randomly assigned to control or treatment groups (6-9 mice/group).
Therapeutic treatment with a combination of SAR2405550/BSI-201 and the alkylating agent TMZ was initiated when tumor xenografts (WM9) in nude mice reach 100 mm^3 in volume and treatment was continued for 5 days. In specific instances, the tumor volume is measured for assessment of therapeutic effect.

[3] = tested on: patients with acute coronary syndromes; conditions: compared to unfractionated heparin and eptifibatide; cited from earlier work
[4] = in vivo; cited from earlier work
[5] = tested on: patients with active rheumatoid arthritis; conditions: week 12, subcutaneous, relative to placebo, patients receiving methotrexate; cited from earlier work
[6] = tested on: IL-6-dependent myeloma cell line, KPMM2; assay: IL-6 signaling mediated by mIL-6R, KPMM2 growth; type: cell-based
Procedure: IL-6-dependent myeloma cell line, KPMM2 (1×10^5 cells/mL) are cultured with IL-6 (0-100 ng/mL) and sarilumab (0-100 μg/mL) in a CO2 incubator for 4 days in a 96-well plate. After incubation, the amount of [^3H]-thymidine uptake into cells is determined with a scintillation counter.

human IL-6R = molecular target: T1, human IL-6R (Homo sapiens, UniProt P08887); assay: Binding to COS-7 cells transfected with human IL-6R (fluorescent intensity); type: cell-based
T1 construct: expressed in transfected cells; host or cells: COS-7 cells
T1 sequence (P08887 20-468): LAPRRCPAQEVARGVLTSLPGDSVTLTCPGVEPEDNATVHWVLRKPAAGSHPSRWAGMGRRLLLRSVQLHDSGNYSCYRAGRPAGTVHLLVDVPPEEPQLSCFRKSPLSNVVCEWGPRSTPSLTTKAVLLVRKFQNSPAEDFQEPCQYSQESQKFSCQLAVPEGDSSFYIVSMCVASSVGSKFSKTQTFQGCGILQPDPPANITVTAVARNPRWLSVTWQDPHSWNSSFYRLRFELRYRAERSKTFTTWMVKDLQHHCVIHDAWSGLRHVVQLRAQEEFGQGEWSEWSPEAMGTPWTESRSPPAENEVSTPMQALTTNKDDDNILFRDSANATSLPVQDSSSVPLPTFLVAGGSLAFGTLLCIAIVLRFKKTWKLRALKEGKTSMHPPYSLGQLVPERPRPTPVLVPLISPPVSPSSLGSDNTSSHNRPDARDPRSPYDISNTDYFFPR
Procedure: COS-7 cells (1×10^6) are inoculated into 10 mL of the medium on a 10 cm dish. Next day, the old medium is replaced with 20 mL of new medium per dish. After 3.42 mL of Opti-MEM (Invitrogen, Carlsbad, Calif., USA) is placed in a polystyrene tube, 180 μL of Trans-IT LTI reagent (Takara Bio, Shiga, Japan) is added and mixed well. The mixture (3.6 mL) is left at room temperature for 15 min. After 60 μg of human IL-6R expression vector hIL-6R/pcDNA3.1 (+) or control (empty) vector pcDNA3.1 (+) (Invitrogen) is added to 5.4 mL of Opti-MEM and mixed well with the above mixture, the resulting solution (9 mL) is allowed to stand at room temperature for 15 min, divided in 3 mL aliquots on three dishes, and incubated at 37 8 C under 5% CO2 for 3 days.

BAF-h130 cells = assay: IL-6 signaling mediated by sIL-6R, BAF-h130 proliferation ([3H]-thymidine uptake); type: cell-based, murine; conditions: IL-6 100 ng/mL, sIL-6R 500 ng/mL, 4 days
Procedure: BAF-h130 cell is a human gp130-transfected murine pro-B cell, BAF-B03. BAF-h130 cells (1×10^4) are cultured with IL-6 (100 ng/mL) (Genzyme-techne, Minneapolis, Minn., USA), sIL-6R (500 ng/mL) or sarilumab (0.01-100 Ag/mL) at 37° C. under 5% CO2 for 4 days in 96-well flat-bottomed plates. The culture is performed in quadruplicate. [^3H]-thymidine (10 μL/well, 3.7 MBq/mL) (Amercham Pharmacia Biotech, Piscataway, N.J., USA) is added to each well 5 h before the completion of culture. After incubation, the amount of [^3H]-thymidine uptake into cells is determined with a scintillation counter (1450 MicroBeta) (Wallace Oy, Turku, Finland).
BaF-h130 cells could grow by the co-addition of IL-6 (100 ng/ml) and sIL-6R (500 ng/mL), but not by IL-6 or sIL-6R alone. […] Sarilumab suppresses the IL-6/sIL-6R complex-induced proliferation of human gp130-transfected cell, BAF-h130.

## NC(=O)c1ccc(I)c([N+](=O)[O-])c1 [Iniparib, 4-iodo-3-nitrobenzamide]
Tumor cell lines
  cell cycle arrest: inducing cell cycle arrest in the G2/M phase
  potentiation of DNA damaging modalities: potentiating the cell cycle effects of DNA damaging modalities
  γ-H2AX induction: inducing γ-H2AX
[1]
  solubility: soluble

## 21^A-Gly-30^Ba-L-Arg-30^Bb-L-Arg-human insulin [Gly^A21-Human Insulin-Arg^B31-Arg^B32-OH]
Blood glucose
  basal action profile: same advantageous basal profile as human insulin-Arg^B31-Arg^B32-OH
[2]
  stability: stable for a long period of time

## Cn1nnc2c(C(N)=O)ncn2c1=O [TMZ]
Tumor xenografts (WM9)
  tumor growth: No significant differences in tumor growth

## COC(=O)[C@H](Cc1cccc(C(=N)N)c1)[C@@H](C)NC(=O)c1ccc(-c2cc[n+]([O-])cc2)cc1 (mixture of isomers) [Otamixaban, Methyl(2R,3R)-2-{3-[amino(imino)methyl]benzyl}-3-{[4-(1-oxidopyridin-4-yl)benzoyl]amino}butanoate]
[3]
  combined end point of death or myocardial infarction: significant reduction
[4]
  half-life: ~30 min

B1: Sarilumab: fully human monoclonal antibody that selectively targets the interleukin-6 receptor (IL-6R) (antibody, chains of the INN, looked up, V domains shown)
VH: EVQLVESGGGLVQPGRSLRLSCAASRFTFDDYAMHWVRQAPGKGLEWVSGISWNSGRIGYADSVKGRFTISRDNAENSLFLQMNGLRAEDTALYYCAKGRDSFDIWGQGTMVTVSS
VL: DIQMTQSPSSVSASVGDRVTITCRASQGISSWLAWYQQKPGKAPKLLIYGASSLESGVPSRFSGSGSGTDFTLTISSLQPEDFASYYCQQANSFPYTFGQGTKLEIK
[5]
  ACR20: significant and clinically relevant improvements
[6]
  growth of KPMM2: suppress the growth
Human IL-6R; IL-6R transfectant
  fluorescent intensity in COS-7 cells expressing human IL-6R: increases the fluorescent intensity
Human IL-6R; control vector pcDNA3.1 (+) transfectant
  fluorescent intensity in COS-7 mock cells: not in COS-7 mock cells
BAF-h130 cells
  proliferation of BAF-h130 cells induced by IL-6/sIL-6R complex: suppresses the proliferation of BAF-h130 cells induced by the complex of IL-6 and sIL-6R in a concentration-dependent manner
